Data on 38 molecules can be found in ChEMBL document CHEMBL4376805, “Plasmodium Purine Metabolism and Its Inhibition by Nucleoside and Nucleotide Analogues” (J Med Chem, 2019).

Data set [1] has as its system Plasmodium falciparum. Put plainly: Antimalarial activity against Plasmodium falciparum D6 assessed as reduction in parasite growth preincubated for 48 hrs followed by addition of [3H]Hypoxanthine and measured after 48 hrs by [3H]Hypoxanthine incorporation assay. The format is functional, organism-based.
The subject of data set [2] is Plasmodium falciparum. Kind of data set: Antimalarial activity against chloroquine/ pyrimethamine-resitant Plasmodium falciparum W2 assessed as reduction in parasite growth preincubated for 48 hrs followed by addition of [3H]Hypoxanthine and measured after 48 hrs by [3H]Hypoxanthine incorporation assay. The format is functional, organism-based.
Data set [3] is described as follows: Inhibition of Plasmodium vivax HGPRT using Prib-PP as substrate by Hanes-plot based method.
The nature of data set [4]: Inhibition of Plasmodium falciparum HGXPRT using Prib-PP as substrate by Hanes-plot based method.
In data set [5] the target is T1, Hypoxanthine-guanine phosphoribosyltransferase (Homo sapiens, UniProt P00492).
T1 sequence (P00492 whole entry): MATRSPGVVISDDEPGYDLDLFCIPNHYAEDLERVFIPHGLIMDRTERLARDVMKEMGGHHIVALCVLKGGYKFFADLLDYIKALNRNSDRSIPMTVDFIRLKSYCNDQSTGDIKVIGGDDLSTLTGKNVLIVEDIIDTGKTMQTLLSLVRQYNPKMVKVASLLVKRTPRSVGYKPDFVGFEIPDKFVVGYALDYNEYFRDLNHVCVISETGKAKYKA

Data set [6] relates to Plasmodium falciparum. Kind of data set: Antimalarial activity against synchronized Plasmodium falciparum K1 ring form infected in human erythrocytes assessed as reduction in parasite growth after 72 hrs by Hoechst 33258 staining based fluorescence assay. In kind it is functional, organism-based. Particulars: K1, 72 h.
Data set [7] in a line: Inhibition of Plasmodium falciparum N-terminal His6-tagged HGXPRT using Prib-PP as substrate by Hanes-plot based method.
In data set [8] the target is T1, Hypoxanthine-guanine phosphoribosyltransferase. Put plainly: Inhibition of human N-terminal His6-tagged HGPRT using Prib-PP as substrate by Hanes-plot based method.
The test system of data set [9] is Plasmodium falciparum. Put plainly: Antimalarial activity against Plasmodium falciparum FCQ-27 isolate infected in erythrocytes assessed as reduction in [G-3H]Hypoxanthine incorporation incubated for 24 hrs followed by addition of [G-3H]Hypoxanthine and measured after 18 to 20 hrs by scintillation counting method. The format is functional.
For data set [10], the system named is Plasmodium falciparum. Kind of data set: Antimalarial activity against multi drug-resistant Plasmodium falciparum K1 assessed as reduction in parasite growth [3H]Hypoxanthine incorporation assay. In kind it is functional. Particulars: read-out: ID50 (the source's name).
Data set [11] has as its system Plasmodium falciparum. Put plainly: Antimalarial activity against Plasmodium falciparum. In kind it is functional. As to conditions: read-out: ID50 (the source's name).
Data set [12] is described as follows: Inhibition of Plasmodium falciparum HGXPRT expressed in Escherichia coli BL21 (DE3) assessed as inhibitor constant for enzyme-inhibitor-substrate complex formation using [5'-14C]IMP as substrate by scintillation counting method.
Data set [13] has as its target T2, Adenosine deaminase (Plasmodium falciparum, UniProt Q86GS5).
T2 sequence (Q86GS5 whole entry): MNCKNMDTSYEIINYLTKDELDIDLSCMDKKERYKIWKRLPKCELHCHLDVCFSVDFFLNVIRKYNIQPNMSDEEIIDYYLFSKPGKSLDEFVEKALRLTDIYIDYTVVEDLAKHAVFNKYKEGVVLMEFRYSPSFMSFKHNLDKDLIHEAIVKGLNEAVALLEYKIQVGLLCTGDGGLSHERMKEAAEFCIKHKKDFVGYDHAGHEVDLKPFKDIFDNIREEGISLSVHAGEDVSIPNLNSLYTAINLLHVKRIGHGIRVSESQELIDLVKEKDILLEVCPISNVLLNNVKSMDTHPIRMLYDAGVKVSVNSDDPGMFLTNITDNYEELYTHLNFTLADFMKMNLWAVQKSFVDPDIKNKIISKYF
Put plainly: Inhibition of Plasmodium falciparum N-terminal thrombin cleavable His6-tagged ADA expressed in Escherichia coli BL21 assessed as reduction in formation of inosine using adenosine as substrate.

Data set [14] addresses T2, Adenosine deaminase. Put plainly: Inhibition of Plasmodium falciparum N-terminal thrombin cleavable His6-tagged ADA expressed in Escherichia coli BL21 assessed as equilibrium dissociation constant by measuring reduction in formation of inosine using adenosine as substrate.
The target in data set [15] is T2, Adenosine deaminase. Put plainly: Inhibition of Plasmodium falciparum ADA assessed as reduction in formation of ammonia using adenosine as substrate incubated for 15 mins by spectrophotometric analysis.
The subject of data set [16] is Plasmodium falciparum. Kind of data set: microbe, parasite or virus in culture. Particulars: 3D7.
Data set [17] has as its target T3, Purine nucleoside phosphorylase (Plasmodium falciparum, UniProt Q8T9Z7).
T3 sequence (Q8T9Z7 whole entry): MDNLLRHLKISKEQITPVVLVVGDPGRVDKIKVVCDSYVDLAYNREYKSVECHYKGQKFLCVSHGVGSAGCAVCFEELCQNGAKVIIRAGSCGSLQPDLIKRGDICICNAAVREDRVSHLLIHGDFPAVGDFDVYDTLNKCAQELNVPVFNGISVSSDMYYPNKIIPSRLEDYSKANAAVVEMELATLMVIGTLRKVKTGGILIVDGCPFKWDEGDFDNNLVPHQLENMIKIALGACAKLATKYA

The target of data set [18] is T4, Purine nucleoside phosphorylase (Homo sapiens, UniProt P00491).
T4 sequence (P00491 whole entry): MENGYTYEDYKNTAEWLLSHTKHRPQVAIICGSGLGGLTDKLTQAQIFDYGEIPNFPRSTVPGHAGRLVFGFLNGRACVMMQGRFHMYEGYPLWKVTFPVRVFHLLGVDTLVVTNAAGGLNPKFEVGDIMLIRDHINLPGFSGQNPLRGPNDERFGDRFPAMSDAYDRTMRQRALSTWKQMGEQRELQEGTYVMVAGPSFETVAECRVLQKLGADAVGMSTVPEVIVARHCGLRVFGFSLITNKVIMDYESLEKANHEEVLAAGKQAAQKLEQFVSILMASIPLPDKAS

Substrate in data set [19]: O=c1[nH]cnc2c1ncn2[C@@H]1O[C@H](CO)[C@@H](O)[C@H]1O
Put plainly: Binding affinity to Plasmodium falciparum His-tagged PNP assessed as catalytic rate by measuring uric acid formation.

Substrate in data set [20]: O=c1[nH]cnc2c1ncn2[C@@H]1O[C@H](CO)[C@@H](O)[C@H]1O
Kind of data set: Binding affinity to human PNP assessed as catalytic rate by measuring uric acid formation.

Regarding `CCOC(=O)[C@H](Cc1ccccc1)NP(=O)(CCO[C@H](CO)Cn1cnc2c(=O)[nH]c(N)nc21)N[C@@H](Cc1ccccc1)C(=O)OCC`, the IC50 in [1] and in data set [2] was 22 to 70 µM each time.

In the case of `Nc1nc2c(ncn2[C@H]2CCN(C(=O)CP(=O)(O)O)C2)c(=O)[nH]1`, the figures for the Ki in data set [3], in data set [4] and in data set [5] were 2600 µM, 400 µM and 73000 µM, respectively.

For `Nc1ncnc2c1ncn2CCOCP(=O)(O)O` [ADEFOVIR], the IC50 in data set [6] was greater than 250 µM.

`Nc1nc2c(nc(Br)n2C[C@@H](CO)OCCP(=O)(O)O)c(=O)[nH]1`: the values for the inhibition constant Ki in [7] and in data set [8] were greater than 30 µM and 13 µM, respectively.

On to `Nc1nc(N)c2ncn(C[C@H](CO)OCP(=O)(O)O)c2n1`, for which the IC50 in data set [6] came to 15 µM.

Consider `Nc1nc(Cl)nc2c1ncn2[C@@H]1O[C@H](CO)[C@@H](O)[C@H]1O`, for which the IC37 in data set [9] was 11 µM.

As for `COC(=O)[C@H](Cn1cnc2c(=O)[nH]cnc21)OCCP(=O)(O)O`, the inhibition constant (Ki) – broadly, the dissociation constant of the complex between target and ligand, obtained from inhibition or displacement – came out at 1 µM in [7] and 6 µM in data set [8].

`O=c1[nH]cnc2c1ncn2C[C@H](CO)n1cc(P(=O)(O)O)nn1`: the inhibitory constant (Ki) was greater than 100 µM in [3], 3 µM in data set [4] and 8 µM in [5].

In the case of `Nc1nc2c(ncn2C[C@@H](CO)OCCP(=O)(O)O)c(=O)[nH]1`, the inhibitory constant (Ki) stood at 0.1 µM in data set [7] and 0.6 µM in [8].

Take `Nc1nc(SCc2ccc([N+](=O)[O-])cc2)c2ncn([C@@H]3O[C@H](CO)[C@@H](O)[C@H]3O)c2n1`: the IC50 in [10] was found to be 4.5 µM.

As to `Nc1nc2c(ncn2C[C@@H](CO)n2cc(P(=O)(O)O)nn2)c(=O)[nH]1`, the Ki was determined as 2 µM in data set [3], 2 µM in [4] and 0.4 µM in data set [5].

Consider `Nc1nc(N)c2ncn(C[C@@H](CO)OCP(=O)(O)O)c2n1`, for which the IC50 in data set [6] came out at 2.1 µM.

Take `Nc1ncnc2c1ccn2[C@@H]1O[C@H](CO)[C@@H](O)[C@H]1O` [TUBERCIDIN]: in [9], the IC37 amounted to 0.7 µM.

In the case of `NC(=O)c1cn([C@@H]2O[C@H](CO)[C@@H](O)[C@H]2O)c2ncnc(N)c12` [SANGIVAMYCIN], in data set [9], the IC37 turned out to be 0.3 µM. Besides, the IC50 in data set [11] was 25 µM.

As for `O=c1[nH]cnc2c([C@@H]3N[C@H](COP(=O)(O)O)[C@@H](O)[C@H]3O)c[nH]c12`, the Ki in data set [12] is 0.001 µM.

With `O=C(CCP(=O)(O)O)N1C[C@@H](n2cnc3c(O)ncnc32)[C@H](OC[C@@H](O)P(=O)(O)O)C1`, the Ki in [3] amounted to 0.006 µM; in [4], 0.002 µM.

For the molecule `CC(C)(C)C(=O)OCOP(=O)(COCCn1cnc2c(N)ncnc21)OCOC(=O)C(C)(C)C` [ADEFOVIR DIPIVOXIL], the IC50 in [6] was determined as 37.3 µM.

`CCOC(=O)[C@H](Cc1ccccc1)NP(=O)(CCO[C@@H](Cn1cnc2c(=O)[nH]c(N)nc21)C(=O)OC)N[C@@H](Cc1ccccc1)C(=O)OCC`: the IC50 in [1] and in [2] was 50 µM throughout.

In the case of `Nc1nc2c(ncn2C[C@H](CO)n2cc(P(=O)(O)O)nn2)c(=O)[nH]1`, the results for the Ki in [3], in data set [4] and in data set [5] were 1 to 6 µM, 1 to 6 µM and 0.1 µM, respectively.

With `Nc1nccc2c1ncn2C[C@@H](CO)OCP(=O)(O)O`, the IC50 in data set [6] amounted to 0.29 µM.

On to `Nc1nccc2c1ncn2C[C@H](CO)OCP(=O)(O)O`, for which, in [6], the IC50 is 100 µM.

With `OC[C@H]1O[C@@H](n2cnc3c2N=CNC[C@H]3O)[C@H](O)[C@@H]1O` [COFORMYCIN], the inhibition constant (Ki) in data set [13] is 0.00068 µM; in [14] it was 0.08 nM; in data set [15], 0.25 nM.

`O=c1[nH]cnc2c([C@@H]3N[C@H](CO)[C@@H](O)[C@H]3O)c[nH]c12` [FORODESINE]: the IC50 in [16] worked out at 0.063 µM.

Take `O=c1[nH]c(=O)c2ncn(C[C@H](CO)n3cc(P(=O)(O)O)nn3)c2[nH]1`: the inhibition constant (Ki) in data set [4] was 2 µM; in data set [5] it was greater than 500 µM.

With `CCOC(=O)[C@H](Cc1ccccc1)NP(N)(=O)CCO[C@H](CO)Cn1cnc2c(=O)[nH]c(N)nc21` (stereo partly specified), the IC50 in data set [1] and in data set [2] was greater than 250 µM each time.

With `CCOC(=O)[C@H](Cc1ccccc1)NP(=O)(CCO[C@@H](Cn1cnc2c(=O)[nH]cnc21)C(=O)OC)N[C@@H](Cc1ccccc1)C(=O)OCC`, the IC50 in [1] and in [2] was 50 µM each time.

`Nc1nc2c(ncn2[C@@H]2CN(C(=O)CCP(=O)(O)O)C[C@H]2OC[C@@H](O)P(=O)(O)O)c(=O)[nH]1`: the Ki in [3] is 0.008 µM; in data set [4] it was 0.007 µM.

As to `CCOC(=O)[C@H](Cc1ccccc1)NP(N)(=O)CCO[C@H](CO)Cn1cnc2c(=O)[nH]cnc21` (stereo partly specified), the IC50 in data set [1] and in data set [2] was greater than 250 µM in each case.

Consider `Nc1ncnc2c1ncn2[C@H]1O[C@@H](CO)[C@H](OP(=O)(O)OC[C@H]2O[C@@H](n3cc(F)c(=O)[nH]c3=O)C[C@@H]2O)[C@@H]1O`, for which the IC50 in data set [11] came out at 4 µM.

On to `O=[N+]([O-])c1ccc(CSc2ncnc3c2ncn3[C@@H]2O[C@H](CO)[C@@H](O)[C@H]2O)cc1` [NITROBENZYLMERCAPTOPURINE RIBONUCLEOSIDE], for which, in data set [10], the IC50 was 4.2 µM.

In the case of `CNc1ncnc2c1ncn2[C@H]1C[C@H](O)[C@@H](CO)O1`, the IC37 in data set [9] is 10 µM.

`OC[C@H]1O[C@@H](n2cnc3c2NC=NC[C@@H]3O)[C@H](O)[C@@H]1O`: the Ki in [15] amounted to 0.007 nM.

For `Nc1ncnc2c1ncn2C[C@@H](CO)OCP(=O)(O)O`, the IC50 in data set [6] stood at 0.18 µM.

With `Nc1ncnc2c1ncn2[C@@H]1C[C@@H](OP(=O)(O)OC[C@H]2O[C@@H](n3cc(F)c(=O)[nH]c3=O)C[C@@H]2O)[C@H](CO)O1`, in data set [11], the IC50 stood at 5 µM.

With `Nc1nc2c([C@@H]3N[C@H](CO)[C@@H](O)[C@H]3O)c[nH]c2c(=O)[nH]1`, the inhibitory constant (Ki) in data set [17] is 0.0009 µM; in data set [18] it was 0.029 µM.

As to `Nc1ncnc2c1ncn2C[C@H](CO)OCP(=O)(O)O`, in data set [6], the IC50 was 6 µM.

B1: Purine nucleoside phosphorylase (Plasmodium falciparum), Q8T9Z7 (protein)
chain: T3 sequence (Q8T9Z7 whole entry)
B1: in data set [19], the turnover number (kcat) (in general, the number of substrate molecules converted per active site and unit of time at saturation) is 0.34 s⁻¹.

B2: Purine nucleoside phosphorylase (Homo sapiens), P00491 (protein)
chain: T4 sequence (P00491 whole entry)
B2: the kcat in data set [20] is 56 s⁻¹.
